According to PubChem BioAssay AID248 (DTP/NCI, 2004):
Where “and” joins values, the source holds several entries; their conditions need not be identical. Equal values may be shown once. Toxic doses and inconclusive results are not listed. Cut-off read from the data, not from the text of the source: active = T/C of 150% or more; inactive = T/C below 125%.

Tested on: L1210 leukemia ip in BDF1 mice, survival T/C
Assay: NCI In Vivo Anticancer Drug Screen. Data for tumor model L1210 Leukemia (intraperitoneal) in B6D2F1 (BDF1) mice
Conditions: endpoint: mean survival time, higher = longer survival
Procedure, shortened: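 Ratio derived from survival: compound-dosed mice over vehicle-dosed mice, all bearing a transplantable tumor.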

[1] = dose: 100.0 mg/kg/injection, schedule: Q04DX003 (ip), vehicle: saline with Tween-80
[2] = dose: 200.0 mg/kg/injection, schedule: Q04DX003 (ip), vehicle: saline with Tween-80
[3] = dose: 400.0 mg/kg/injection, schedule: Q04DX003 (ip), vehicle: saline with Tween-80
[4] = dose: 50.0 mg/kg/injection, schedule: Q01DX001 (ip), vehicle: carboxymethylcellulose (CMC)
[5] = dose: 100.0 mg/kg/injection, schedule: Q01DX001 (ip), vehicle: carboxymethylcellulose (CMC)
[6] = dose: 200.0 mg/kg/injection, schedule: Q01DX001 (ip), vehicle: carboxymethylcellulose (CMC)
[7] = dose: 400.0 mg/kg/injection, schedule: Q01DX001 (ip), vehicle: carboxymethylcellulose (CMC)
[8] = dose: 50.0 mg/kg/injection, schedule: Q04DX003 (ip), vehicle: saline with Tween-80
[9] = dose: 100.0 mg/kg/injection, schedule: Q04DX003 (ip), vehicle: saline
[10] = dose: 200.0 mg/kg/injection, schedule: Q04DX003 (ip), vehicle: saline
[11] = dose: 400.0 mg/kg/injection, schedule: Q04DX003 (ip), vehicle: saline
[12] = dose: 100.0 mg/kg/injection, schedule: Q01DX001 (ip), vehicle: saline
[13] = dose: 200.0 mg/kg/injection, schedule: Q01DX001 (ip), vehicle: saline
[14] = dose: 400.0 mg/kg/injection, schedule: Q01DX001 (ip), vehicle: saline
[15] = dose: 100.0 mg/kg/injection, schedule: Q04DX002 (ip), vehicle: Klucel (hydroxypropylcellulose) (HPC)
[16] = dose: 200.0 mg/kg/injection, schedule: Q04DX002 (ip), vehicle: Klucel (hydroxypropylcellulose) (HPC)
[17] = dose: 400.0 mg/kg/injection, schedule: Q04DX002 (ip), vehicle: Klucel (hydroxypropylcellulose) (HPC)
[18] = dose: 50.0 mg/kg/injection, schedule: Q01DX001 (ip), vehicle: saline
[19] = dose: 100.0 mg/kg/injection, schedule: Q01DX001 (ip), vehicle: Klucel (hydroxypropylcellulose) (HPC)
[20] = dose: 100.0 mg/kg/injection, schedule: Q04DX003 (ip), vehicle: Klucel (hydroxypropylcellulose) (HPC)
[21] = dose: 200.0 mg/kg/injection, schedule: Q04DX003 (ip), vehicle: Klucel (hydroxypropylcellulose) (HPC)
[22] = dose: 400.0 mg/kg/injection, schedule: Q04DX003 (ip), vehicle: Klucel (hydroxypropylcellulose) (HPC)

Measured: T/C

Brc1cccc([Si](c2ccccc2)(c2ccccc2)c2cccc(Br)c2)c1
inactive: [1] 98 % of control | [2] 98 % of control | [3] 95 % of control

CC(=O)OCC1OC(n2cc(C)c(=O)[nH]c2=O)C(Nc2ccc([N+](=O)[O-])cc2[N+](=O)[O-])C(OC(C)=O)C1OC(C)=O (stereo unspecified)
inactive: [4] 97 % of control | [5] 94 % of control | [6] 94 % of control | [7] 89 % of control

ClCc1ccc2ccccc2n1
inactive: [8] 104 % of control | [1] 102 % of control | [2] 93 % of control

C[N+](C)(C)CC1CCCC1C[N+](C)(C)C (stereo unspecified)
inactive: dose: 50.0 mg/kg/injection, schedule: Q04DX003 (ip), vehicle: saline 110 % of control | [9] 96 % of control | [10] 102 % of control | [11] 90 % of control

O=S(=O)(c1cc(Cl)ccc1Cl)N1CCc2ccccc2C1
inactive: dose: 100.0 mg/kg/injection, schedule: Q04DX002 (ip), vehicle: gum acacia 104 % of control | dose: 200.0 mg/kg/injection, schedule: Q04DX002 (ip), vehicle: gum acacia 93 % of control | dose: 400.0 mg/kg/injection, schedule: Q04DX002 (ip), vehicle: gum acacia 93 % of control

N#C/C=C/C#N
inactive: [1] 92 % of control

C=CCOC(=O)Nc1ccc(S(=O)(=O)NC2CCCCC2)cc1
inactive: [12] 92 % of control | [13] 94 % of control | [14] 97 % of control

c1ccc(-c2cc3c(nn2)[nH]c2ccccc23)cc1
inactive: [15] 105 % of control | [16] 97 % of control | [17] 87 % of control

COc1ccc(C(=O)C(C)C(C)=N)c(OCc2ccccc2)c1OC (stereo unspecified)
inactive: [5] 95 % of control | [6] 92 % of control | [7] 92 % of control

O=C1c2cc([N+](=O)[O-])ccc2-c2cc(Cl)c(NC(=O)C(Cl)Cl)cc21
inactive: [4] 101 % of control | [5] 104 % of control | [6] 101 % of control | [7] 104 % of control

c1ccc(-c2nc3nnnn3nc2-c2ccccc2)cc1
inactive: [18] 100 % of control | [12] 103 % of control | [13] 98 % of control

COC(=O)C1(C)COP(=O)(O)OC1 (stereo unspecified) (tested in a mixture with another compound)
inactive: [12] 91 % of control and 107 % of control and 100 % of control | [13] 94 % of control and 96 % of control and 97 % of control | [14] 89 % of control and 105 % of control and 107 % of control

C=C(C)c1ccc(C)c(C)c1
inactive: dose: 25.0 mg/kg/injection, schedule: Q04DX003 (ip), vehicle: saline with Tween-80 100 % of control | [8] 106 % of control | [1] 94 % of control | [2] 95 % of control | [3] 90 % of control

CCCCNCCCC(C(=O)O)c1ccccc1 (stereo unspecified)
inactive: dose: 75.0 mg/kg/injection, schedule: Q01DX001 (ip), vehicle: carboxymethylcellulose (CMC) 100 % of control | dose: 150.0 mg/kg/injection, schedule: Q01DX001 (ip), vehicle: carboxymethylcellulose (CMC) 90 % of control | dose: 300.0 mg/kg/injection, schedule: Q01DX001 (ip), vehicle: carboxymethylcellulose (CMC) 90 % of control

CCSC(=O)Nc1cccc(OC(=O)NC)c1
inactive: dose: 100.0 mg/kg/injection, schedule: Q01DX001 (ip), vehicle: saline with Tween-80 100 % of control | dose: 200.0 mg/kg/injection, schedule: Q01DX001 (ip), vehicle: saline with Tween-80 97 % of control | dose: 400.0 mg/kg/injection, schedule: Q01DX001 (ip), vehicle: saline with Tween-80 97 % of control

O=C1NCCN1c1cccc([N+](=O)[O-])c1
inactive: dose: 25.0 mg/kg/injection, schedule: Q01DX009 (ip), vehicle: saline with Tween-80 108 % of control | dose: 50.0 mg/kg/injection, schedule: Q01DX009 (ip), vehicle: saline with Tween-80 103 % of control | [19] 96 % of control | dose: 100.0 mg/kg/injection, schedule: Q01DX009 (ip), vehicle: saline with Tween-80 98 % of control

CCC(=O)O[C@H]1CC[C@H]2[C@@H]3[C@H](C)CC4=CC(=O)CC[C@]4(C)[C@H]3CC[C@]12C
inactive: [5] 97 % of control | [6] 94 % of control | [7] 90 % of control

O=C(/C=C\C(Cl)(Cl)Cl)c1ccccc1
inactive: [19] 93 % of control | dose: 200.0 mg/kg/injection, schedule: Q01DX001 (ip), vehicle: Klucel (hydroxypropylcellulose) (HPC) 93 % of control | dose: 400.0 mg/kg/injection, schedule: Q01DX001 (ip), vehicle: Klucel (hydroxypropylcellulose) (HPC) 97 % of control

O=[N+]([O-])c1cccc(C=Nc2ccc(CCC3(CCl)OCCO3)cc2)c1
inactive: dose: 100.0 mg/kg/injection, schedule: Q01DX001 (ip), vehicle: gum acacia 96 % of control | dose: 200.0 mg/kg/injection, schedule: Q01DX001 (ip), vehicle: gum acacia 98 % of control | dose: 400.0 mg/kg/injection, schedule: Q01DX001 (ip), vehicle: gum acacia 98 % of control

CC(C)(C)CC(C)(C)O
inactive: [12] 102 % of control | [13] 102 % of control | [14] 96 % of control

O=NN(CCCCl)C(=O)NC1CCCCC1
inactive: dose: 12.5 mg/kg/injection, schedule: Q01DX001 (ip), vehicle: saline 103 % of control | dose: 25.0 mg/kg/injection, schedule: Q01DX001 (ip), vehicle: saline 108 % of control | [18] 103 % of control | [12] 103 % of control | [13] 102 % of control | dose: 300.0 mg/kg/injection, schedule: Q01DX001 (ip), vehicle: saline 106 % of control | [14] 110 % of control | dose: 500.0 mg/kg/injection, schedule: Q01DX001 (ip), vehicle: saline 100 % of control | dose: 600.0 mg/kg/injection, schedule: Q01DX001 (ip), vehicle: saline 106 % of control | dose: 800.0 mg/kg/injection, schedule: Q01DX001 (ip), vehicle: saline 112 % of control | dose: 1000.0 mg/kg/injection, schedule: Q01DX001 (ip), vehicle: saline 103 % of control

CN(C)C1CS(=O)(=O)C1C1CS(=O)(=O)C1 (stereo unspecified)
inactive: [15] 89 % of control | [16] 86 % of control | [17] 96 % of control

COc1cc(/C=C(/NC(=O)c2ccccc2)C(=O)O)ccc1O
inactive: [12] 94 % of control | [9] 96 % of control | [13] 89 % of control | [10] 97 % of control | [14] 96 % of control | [11] 88 % of control

CCCOP(=O)(OCCC)C(OC(=O)C(C)(C)C)=C(C)C
inactive: [1] 92 % of control | [2] 96 % of control

CCCCCCCCc1cc[n+](C2=C([O-])c3ccccc3C(=O)C2=O)cc1
inactive: dose: 1.5 mg/kg/injection, schedule: Q01DX009 (ip), vehicle: saline 106 % of control | dose: 3.0 mg/kg/injection, schedule: Q01DX009 (ip), vehicle: saline 95 % of control | dose: 6.0 mg/kg/injection, schedule: Q01DX009 (ip), vehicle: saline 106 % of control

COC(=O)c1cc(C)cc(OC(=S)N(C)C)c1C
inactive: [5] 96 % of control | dose: 100.0 mg/kg/injection, schedule: Q01DX009 (ip), vehicle: carboxymethylcellulose (CMC) 103 % of control | [6] 93 % of control | dose: 200.0 mg/kg/injection, schedule: Q01DX009 (ip), vehicle: carboxymethylcellulose (CMC) 98 % of control | [7] 96 % of control | dose: 400.0 mg/kg/injection, schedule: Q01DX009 (ip), vehicle: carboxymethylcellulose (CMC) 93 % of control | dose: 800.0 mg/kg/injection, schedule: Q01DX009 (ip), vehicle: carboxymethylcellulose (CMC) 103 % of control

O=c1[nH]cc(COCC(F)(F)C(F)F)c(=O)[nH]1
inactive: dose: 50.0 mg/kg/injection, schedule: Q01DX005 (ip), vehicle: other 101 % of control | dose: 100.0 mg/kg/injection, schedule: Q01DX005 (ip), vehicle: other 104 % of control | dose: 200.0 mg/kg/injection, schedule: Q01DX005 (ip), vehicle: other 95 % of control | dose: 400.0 mg/kg/injection, schedule: Q01DX005 (ip), vehicle: other 95 % of control

CC1(C)[C@H]2CC[C@@]1(C)C(=O)[C@H]2[N+](=O)[O-]
inactive: [20] 103 % of control | [21] 86 % of control | [22] 93 % of control

O=C1NCCCC1c1nc2cccc3c2n1CCC3 (stereo unspecified)
inactive: [20] 94 % of control | [21] 108 % of control | [22] 97 % of control
